Read-outs that look alike come from different tables or passages of the source. Some results are limits rather than exact numbers.

The values that follow come from patent publication US20230364079A1, “COMPOUND AS BRAIN-PERMEABLE BTK OR HER2 INHIBITOR, PREPARATION METHOD THEREFOR, AND USE THEREOF” (CHENGDU HYPERWAY PHARMACEUTICALS CO., LTD., priority 2020, published 2023).

The subject of data set [1] is TMD8 cell proliferation. The data set can be described thus: In vitro cell proliferation inhibitory activity test (CTG), TMD8. It counts as cell-based, human. The settings on record: TMD8 cells, 72 h. As for the experimental part:
(§1) Test Example 4: In Vitro Cell Proliferation Inhibitory Activity Test
(§2) Cells were cultured in 1640 medium, added with 10% inactivated FBS and 1% double antibiotics, and cultured at 37° C. and 5% CO2.
(§3) (1) Cells were routinely cultured until the cell density was 80%-90%, and the cells were harvested when their number reached the requirement.
(§4) (2) Cells were resuspended with corresponding culture medium, counted, and prepared into cell suspension at appropriate density.
(§5) (3) The cell suspension was added to a 96-well plate, 100 µL per well.
(§6) (4) Cells were cultured overnight in a 37° C., 5% CO2 incubator.
(§7) (1) The compounds to be tested were diluted with DMSO to make a stock solution with a final concentration of 20 mM for later use.
(§8) (2) The stock solution was diluted 10 times from 20 mM to 2 mM with DMSO, and then diluted 3 times from 2 mM to 9 concentrations.
(§9) (3) The blank control wells were cells plus 0.5% DMSO, as high-reading control wells.
(§10) (4) Wells with no cells and only medium were used as low-reading control wells.
(§11) 4: Cell Treatment With Compound
(1) 24 h after the cells were plated, the compounds acted alone, and 99 µL of growth medium was added to each well, followed by 1 µL of the compound prepared in step 3. The plate was shaken gently to mix uniformly, and then placed in a 37° C., 5% CO2 incubator.
(2) The cell plate was placed in an incubator for 72 h.
5: Detection by CTG Method
(1) The cell plate to be tested was placed at room temperature for 30 min, and 100 µL of medium was discarded from each well.
(2) 100 µL of CTG reagent (CelltiterGlo kit) was added to each well, placed on a fast shaker for 2 min, and stood at room temperature in the dark for 30 min.
(§12) (3) The chemiluminescent signal value was read with the Envision instrument.
IC50 was calculated by using GraphPad Prism 8 software. The IC50 (half inhibitory concentration) of the compound was derived using the following nonlinear fitting formula, and the results are shown in the following table: […]

Data set [2] addresses BTK mutation-type C481S kinase (Homo sapiens (Human), UniProt Q06187, C481S). Put plainly: BTK-C481S kinase activity inhibition test in vitro (Caliper EZ Reader). It counts as biochemical. In outline:
(§13)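 Compound (10 mM DMSO stock) preincubated with kinase 10 min at room temperature, then ATP plus kinase substrate 2 added, 10 min reaction at room temperature before stop. Substrate conversion read by Caliper mobility shift; inhibition normalised to no-enzyme and no-compound controls, IC50 by variable-slope log(inhibitor) fit.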

The nature of data set [3]: Liver microsome metabolic stability test, rat. It counts as in vitro ADME. The conditions noted are these: for half-life: liver microsomes, read-out: T½. In outline: (§14)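 Test compound was incubated with rat or human liver microsomes (working solution 0.5 mg/mL protein) after a 10 min pre-incubation at 37 °C, and the reaction was started with an NADPH regenerating system; a no-NADPH control ran to 60 min. Samples were quenched with acetonitrile at 0–60 min and analysed by LC-MS/MS. T½ and CLint(mic) (µL/min/mg) come from first-order elimination kinetics.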

A short description of data set [4]: Liver microsome metabolic stability test, human. Format: in vitro ADME. The settings on record: for half-life: liver microsomes, read-out: T½. In outline: as §14
(In general: Liver microsomes are a subcellular fraction often used to study metabolism.)

Data set [5] in a line: Pharmacokinetic test, oral, SD rats. The settings on record: oral 10 mg/kg, plasma; for half-life: read-out: T½ (converted). It counts as in vivo. The method, boiled down: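 Male/female status unstated; SD rats (3 per group) dosed orally at 10 mg/kg after overnight fast, refed 4 h post-dose. Plasma from serial blood draws stored at -20° C, protein-precipitated with internal standard solution and quantified by LC-MS/MS.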

The target in data set [6] is BTK wild-type kinase (Homo sapiens (Human), UniProt Q06187). Put plainly: BTK kinase activity inhibition test in vitro (Caliper EZ Reader). It counts as biochemical. In outline: as §13
Data set [7] has as its system BT474 cell proliferation. The data set can be described thus: In vitro cell proliferation inhibitory activity test (CTG), BT474. Format: cell-based. The protocol:
as §1, §2, §3, §4, §5, §6, §7, §8, §9, §10, §11
(1) 24 h after the cells were plated, the compounds acted alone, and 99 µL of growth medium was added to each well, followed by 1 µL of the compound prepared in step 3. […]
as §12
IC50 was calculated by using GraphPad Prism 8 software. […]

Data set [8] concerns TMD8 mouse subcutaneous xenograft tumor. The data set can be described thus: TMD8 pharmacodynamic model test (mouse subcutaneous xenograft tumor). It counts as in vivo. As for the experimental part: Test Example 7: TMD8 Pharmacodynamic Model Test
Human diffuse large B-cell lymphoma TMD8 cells were monolayer-cultured in vitro in RPMI1640 medium with 10% fetal bovine serum, 100 U/mL penicillin and 100 µg/mL streptomycin, in a 37° C., 5% CO2 incubator. Routine digestion with trypsin-EDTA was performed twice a week for passaging. When the cell density was 80%-90% and the number reached the requirement, cells were harvested, counted and inoculated. 0.2 ml (1×10^7 cells) of TMD8 cells (added with matrigel at a volume ratio of 1:1) were subcutaneously inoculated on the right back of each mouse. The mice were administered in groups when the average tumor volume reached about 137 mm^3. Tumor diameters were measured twice a week with vernier calipers. The tumor volume was calculated by the formula V = 0.5 a × b^2, where a and b represent the long and short diameters of the tumor, respectively.

The subject of data set [9] is DOHH-2-luc tumor cells in the mouse brain. The data set can be described thus: DOHH-2-Luc intracerebral tumor drug efficacy model test. It counts as in vivo. The protocol: Test Example 8: DOHH-2-Luc Intracerebral Tumor Drug Efficacy Model Test
DOHH-2-luc tumor cells were cultured in vitro with RPMI 1640 medium containing 10% fetal bovine serum and 500 ng/mL puromycin in a 37° C., 5% CO2 incubator. […] Tumor cells in logarithmic growth phase were used for inoculation of tumors in vivo.
2. Inoculation of Tumor Cell and Grouping
After the animal was anesthetized by intramuscular injection of Zoletil, it was fixed on the operating table in a prone position. The skin on the top of the head was disinfected with iodine and 75% alcohol respectively, and the skin was cut about 0.5 cm along the midline of the head to expose the coronal and sagittal lines. Being located about 0.5-1.0 mm above the coronal line and about 2 mm to the right of the sagittal line by using a brain locator, a hole was drilled with a 1 mL syringe needle. The micro-injector was inserted vertically to a depth of 3 mm at the location, slowly (about 1 min) injected with 3 × 10^5 DOHH-2-luc tumor cells /2 µL suspension and kept for 1 min. After pulling out the needle, the needle hole was quickly sealed with bone wax, and the wound was sutured with a stapler. About the 7th day after tumor inoculation, the animals were randomly divided into 5 groups according to the body weight of the animals and the optical signal intensity of the tumor site, with 5 animals in each group.
The mice were imaged 1-2 times a week according to their state using the small animal in vivo imaging system IVIS Lumina III (Perkin Elmer). The bioluminescence imaging (BLI, unit: photons/s) signal intensity at the tumor cell inoculation site of mouse was monitored as the main indicator for evaluating tumor growth and drug efficacy. The specific operation is as follows:
The mice were intraperitoneally injected with D-luciferin (15 mg/mL, 5 µL/g according to the body weight of the experimental animal), and then inhaled anesthetized with 1%-2% isoflurane. 10 min after the injection of D-luciferin, the animals were imaged with IVIS Lumina III. The data were analyzed and processed using Living Image software (Perkin Elmer), and the optical signal intensity in ROI (regions of interest) of each animal was calculated.

The conditions of data set [10]: mice; cited from earlier work.
For data set [11] the following is noted: dog PK experiments; cited from earlier work.

Sequence of BTK wild-type kinase (Q06187 whole entry): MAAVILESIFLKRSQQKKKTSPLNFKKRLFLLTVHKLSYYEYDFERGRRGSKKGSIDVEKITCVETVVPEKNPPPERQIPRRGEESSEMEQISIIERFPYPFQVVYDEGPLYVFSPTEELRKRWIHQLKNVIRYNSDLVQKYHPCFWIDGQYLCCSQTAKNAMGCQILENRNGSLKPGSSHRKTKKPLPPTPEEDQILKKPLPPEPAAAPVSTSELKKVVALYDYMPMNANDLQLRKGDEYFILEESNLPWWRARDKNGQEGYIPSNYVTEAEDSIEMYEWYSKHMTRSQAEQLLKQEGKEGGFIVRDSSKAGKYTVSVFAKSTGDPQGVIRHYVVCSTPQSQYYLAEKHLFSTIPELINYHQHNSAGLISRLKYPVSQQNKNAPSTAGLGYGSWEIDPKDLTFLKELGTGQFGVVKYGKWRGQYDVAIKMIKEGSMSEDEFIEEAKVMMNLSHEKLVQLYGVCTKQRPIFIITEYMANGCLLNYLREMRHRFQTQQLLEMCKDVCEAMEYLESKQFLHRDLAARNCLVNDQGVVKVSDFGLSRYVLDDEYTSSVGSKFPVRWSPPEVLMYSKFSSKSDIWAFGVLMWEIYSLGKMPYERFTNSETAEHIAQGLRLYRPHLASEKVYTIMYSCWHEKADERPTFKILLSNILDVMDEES
Sequence of BTK mutation-type C481S kinase (Q06187 whole entry C481S): as the sequence (Q06187 whole entry) above, with C481S counted along it

What is called IC50 is the concentration at which inhibition is half-maximal. Lower therefore signals greater potency. For orientation: Cmax means the highest concentration seen after dosing. With `Nc1nccn2c([C@@H]3CC[C@H](CO)OC3)nc(-c3ccc(C(=O)Nc4ccccn4)cc3)c12` (single isomer, unassigned) [Compound 2-A-P1], the IC50 is 0.0619 µM in data set [1], below 0.005 µM in [2] and below 0.005 µM in [6]. Moreover, the “CLint” value in data set [3] and in data set [4] was below 9.6 µL/min/mg each time. Moreover, the “T½” value was above 2.42 h in data set [3] (0.5 mg/mL protein), above 2.42 h in data set [4] (0.5 mg/mL protein) and 2.21 h in [5]. Besides, the “%Remaining (60 min)” value in data set [3] turned out to be 95.5%; in data set [4], 122.5%. For the same compound, the “AUC(0-∞)” value in [5] stood at 77004 ng·h/mL. Also, in [5], the “Cl” value came out at 2.18 mL/min/kg. In data set [5], the “Cmax” value was found to be 25188 ng/mL.
As to `Nc1nccn2c(C3CCC(CO)OC3)nc(-c3ccc(C(F)(F)c4ccccc4)cc3)c12` (single isomer, unassigned) [Compound 111-P2], the IC50 in data set [1] is 0.275 µM; in data set [7], 2.18 µM; in [6], 0.02 to 0.1 µM.
Consider `Nc1nccn2c(C3CCC(CO)OC3)nc(-c3ccc(C(F)(F)c4ccccc4)cc3)c12` (single isomer, unassigned) [Compound 111-P1], for which the IC50 was 0.0719 µM in data set [1], below 0.005 µM in data set [2] and below 0.005 µM in data set [6]. Further, the “TGI (tumor inhibition rate)” value in data set [8] (20 mg/kg) was 93%. Further, in [8] (20 mg/kg), the “TGI relative to that of Tirabrutinib” value is recorded as around 2 times. The “inhibitory effect against the tumor compared with Tirabrutinib” value is given as “significantly better inhibitory effect against the tumor” in [8] (same dose of 20 mg/kg, FIG. 2) and “significantly better inhibitory effect against the tumor” in data set [9] (DOHH2 tumor model in the mouse brain, same dose of 30 mg/kg (BID), FIG. 3). The “tumor size in the brain by fluorescence image” value in data set [9] (DOHH-2-Luc intracerebral model, same dose, FIG. 4) is recorded as “very good inhibitory effect against the tumor”. The side effects result in data set [9] (mouse, 30 mg/kg (BID), after 21 days of administration) is “no side effects”.
In general, AUC(0-inf) refers to total exposure, with the tail of the curve extrapolated. Regarding `Cc1cc(Nc2ncnc3ccc(NC4=NC(C)(C)CO4)cc23)ccc1Oc1ccn2ncnc2c1` [Tucatinib, reference compound], the figures for the “%Remaining (60 min)” value in data set [3] and in data set [4] were 38.2% and 28.8%, respectively. The half-life was 0.663 h in [3] (0.5 mg/mL protein), 0.53 h in data set [4] (0.5 mg/mL protein) and 1.72 h in data set [5] (rat). The “Cl” value in data set [5] came out at 161.3 mL/min/kg. In data set [5] (rat), this compound showed an AUC(0-inf) of 2270 ng·h/mL. Moreover, the Cmax in [5] (rat, read-out: Cmax) stood at 445 ng/mL. Also, in [10], the brain permeability rate entry is “less than 5%”.
By bioavailability is commonly meant dose-corrected exposure relative to a reference, in per cent. As to `O=C(c1ccc(Oc2ccccc2)cc1Cl)c1c[nH]c2ncnc(N[C@@H]3CC[C@@H](CO)OC3)c12` [ARQ-531, reference compound], the figures for the “%Remaining (60 min)” value in data set [3] and in [4] were 81.1% and 94.2%, respectively. In addition, the values for the half-life in data set [3] (0.5 mg/mL protein), in [4] (0.5 mg/mL protein) and in data set [5] (rat) were above 2.42 h, above 2.42 h and 3.98 h, respectively. In [5], the “Cl” value was determined as 10.3 mL/min/kg. Moreover, the total exposure AUC(0-inf) in data set [5] (rat) turned out to be 16200 ng·h/mL. Also, the Cmax in data set [5] (rat, read-out: Cmax) worked out at 2410 ng/mL. Moreover, in data set [11], the bioavailability is listed as 38%.
